Here are results for two molecules from patent US9364496B2 (ONCOGENEX TECHNOLOGIES INC., priority 2013, dated 2016).

For data set [1] the following is noted: cited from earlier work.
The nature of data set [2]: Randomized Phase 2 Study OGX-011-03, custirsen plus docetaxel vs docetaxel. The note with it: per arm.
The subject of data set [3] is RPMI 8226 (human myeloma) xenograft. Briefly: In vivo activity of custirsen with Velcade, RPMI 8226 xenograft (Example 14). As to conditions: for efficacy (tumor growth), in words: Velcade 0.5 mg/kg iv; for Day 27 Δ volume / Day 34 Δ volume / Day 41 Δ volume / Day 45 Δ volume: vs Day 20. As to the method:
The cells were implanted subcutaneously into female SCID mice with 7×10^6 cells inoculum.
Tumors and body weights were measured weekly until termination of the study on day 71. Response to treatment was evaluated for tumor growth inhibition (TGI) and tumor growth delay (TGD).
70 CB.17 SCID female mice, 4-6 weeks old, 16-20 grams, obtained from Harlan animal breeding center.
Sample from the cell suspension was taken for counting (0.3 ml in duplicates for CEDEX) before spun down. Cell viability was 85.6% and live cell concentration was 167×10^5 cells/ml. The pellet was resuspended in HBSS to a final volume of 8 ml.
Tumors were implanted subcutaneously with RPMI-8226 cells into the right flank of the mouse on Day 0. Each animal received a s.c. injection 7×10^6 cells in 0.1 ml suspension. On day 20, mice were sorted by the optimal tumor volume ([…]) and were allocated into 5 groups of 10 mice. Mice were individually tagged and their tumor volume and body weight were monitored weekly during the study. Tumor size was measured by caliper and calculated using the formula: […]
The treatment started on […] (0.2 ml per 20 grams v/w) and continued till day 52, after which the remaining mice were left for observation until day 71.

[4] abbreviates: Velcade 0.5 mg/kg iv biwk, Day 48, individual mice.
Setting [5] is: Velcade 0.5 mg/kg iv biwk, Day 51, group mean.
[6] abbreviates: Velcade 0.5 mg/kg iv biwk, Day 51, individual mice.
[7] abbreviates: Velcade 0.5 mg/kg iv biwk, day 51.
The mark [8] stands for this setting: Velcade 0.5 mg/kg iv biwk, earlier day (day not given), group mean, tumor.
[9] abbreviates: Velcade 0.5 mg/kg iv biwk, earlier day (day not given), individual mouse, tumor.
The mark [10] stands for this setting: Velcade 0.5 mg/kg iv biwk, group Mean, n 10.
Where [11] appears, read: Velcade 0.5 mg/kg iv biwk, individual mouse.
Where [12] appears, read: Velcade 0.5 mg/kg iv biwk, later day (day not given), group mean, tumor.
[13] abbreviates: Velcade 0.5 mg/kg iv biwk, later day (day not given), individual mouse, tumor.

Where “and” joins values, the source holds several entries; their conditions need not be identical. Identical values can stand only once. Entries after “also recorded” stand apart in the source; their conditions may differ. Like-named read-outs stand apart in the source and are kept apart here.

On to `CC(=O)O[C@@]12CO[C@@H]1C[C@H](O)[C@@]1(C)C(=O)[C@H](O)C3=C(C)[C@@H](OC(=O)[C@H](O)[C@@H](NC(=O)OC(C)(C)C)c4ccccc4)C[C@@](O)([C@@H](OC(=O)c4ccccc4)[C@H]21)C3(C)C` [Docetaxel], for which the “grade 4 neutropenia (<500 cells/mm^3), patients” value in data set [1] (60 mg/m^2) is 75%; in data set [1] (100 mg/m^2) it was 85%. Further, the “neutropenia (<2,000 neutrophils/mm3), occurrence” value in data set [1] (60-100 mg/m^2) is recorded as “virtually all patients”. In addition, the “incidence of elevated creatinine (primarily grade 1/2)” value in data set [2] is listed as 5%.
Turning to `CC(C)C[C@H](NC(=O)[C@H](Cc1ccccc1)NC(=O)c1cnccn1)B(O)O` [Velcade®, Bortezomib, reference compound], the “efficacy (tumor growth), in words” value in data set [3] is “moderate but not statistically significant efficacy; also recorded: moderate and not statistically significant effect”. Further, the volume in data set [3] (Velcade 0.5 mg/kg iv biwk, Day 48, group mean) stood at 749.8. In data set [3] (setting [4]), the volume was 520 and 868 and 757 and 647 and 687 and 470 and 1151 and 789; the Δ volume was 401.6 and 745.2 and 624.2 and 508.9 and 919.1 and 403.8 and 310.7 and 988.8 and 625.7. For the same molecule, in data set [3] (setting [5]), the volume is 1027.5 and the Δ volume is given as 884.2. Besides, in data set [3] (setting [6]), the volume was 767 and 1043 and 1313 and 774 and 1432 and 917 and 1635 and 1195; the Δ volume was 648.2 and 920.6 and 1179.9 and 636.4 and 1291.7 and 474.1 and 768.2 and 418.7 and 1473.4 and 1031.3. Besides, in data set [3] (setting [7]), the “% TGI day 51” value was 28%, the “No. of CR” value stood at 0, the “No. of PR” value is given as 0 and the “No. of TRD” value came out at 0. Besides, in data set [3] (setting [7]), the “No. og nTRD” value is on record as 0 and the “Δ mean tumor volume, (mean ± se)” value came out at 884 ± 356. In data set [3] (setting [8]), the volume worked out at 1366.1 and the Δ volume amounted to 1224.9. Besides, in data set [3] (setting [9]), the volume was 1019 and 1659 and 1885 and 779 and 2196 and 721 and 1500 and 885 and 1651; the Δ volume was 900.3 and 1536.1 and 1752.5 and 640.9 and 2055.5 and 1351.3 and 724.9 and 1487.1. In data set [3] (setting [10]), the “Day 20 volume” value was found to be 143.2, the “Day 27 volume” value came out at 213.1, the “Day 34 volume” value stood at 251.6 and the “Day 41 volume” value was 422.8. In data set [3] (setting [10]), the “Day 27 Δ volume” value came out at 69.9, the “Day 34 Δ volume” value was found to be 108.3, the “Day 41 Δ volume” value is 279.5 and the “Day 45 Δ volume” value came out at 431.8. In addition, in data set [3] (setting [11]), the “Day 20 volume” value is 133 and 138 and 141 and 145 and 149 and 160 and 162 and 164; the “Day 27 volume” value is 225 (2×) and 260 and 235 and 253 and 206 and 231 and 149 and 185 and 162; the “Day 34 volume” value was 185 and 232 and 255 and 286 and 266 and 285 and 272 and 162 and 343 and 230; the “Day 41 volume” value is 289 and 481 and 501 and 387 and 491 and 443 and 475 and 269 and 528 and 384. Moreover, in data set [3] (setting [11]), the “Day 45 volume” value was 430 and 667 and 507 and 733 and 495 and 663 and 351 and 744; the “Day 27 Δ volume” value is 137.0 and 102.2 and 115.3 and 65.3 and 85.8 and −0.6 and 25.6 and 63.7 and −2.2; the “Day 34 Δ volume” value is 66.0 and 109.0 and 148.3 and 140.0 and 2.9 and 181.4 and 65.9; the “Day 41 Δ volume” value was 170.3 and 358.8 and 368.2 and 249.1 and 349.9 and 297.3 and 325.8 and 109.0 and 366.6 and 200.2. For the same molecule, the “Day 45 Δ volume” value in data set [3] (setting [11]) was 311.5 and 488.4 and 368.7 and 350.1 and 514.1 and 191.8 and 374.8. In data set [3] (setting [12]), this molecule gave a volume of 1236.8 and a Δ volume of 1096.4. Also, in data set [3] (setting [13]), the volume was 1484 and 881 and 1166 and 1417; the Δ volume was 1365.3 and 742.6 and 1020.7 and 1257.1. Besides, the “efficacy (tumor growth), in words” value in data set [3] (listed as Velcade) is recorded as “moderate”.
